Source: patent US5393923A, “3,5-di-t-butyl-4-hydroxyphenylmethylhydroxylamines and their derivatives, pharmaceutical compositions, and methods of use therefor” (Warner-Lambert Company, priority 1993, dated 1995)
Where a name gives a salt, the structure may show the parent alone. Read-outs that look alike come from different tables or passages of the source.

Columns and labels:
5-lipoxygenase = molecular target: T1, 5-lipoxygenase (Rattus norvegicus, UniProt P12527); assay: ARBL whole cell 5-lipoxygenase assay (LTB4 formation, RBL-1 cells); assay type: cell-based
T1 construct: host or cells: RBL-1
T1 sequence (P12527 1-673): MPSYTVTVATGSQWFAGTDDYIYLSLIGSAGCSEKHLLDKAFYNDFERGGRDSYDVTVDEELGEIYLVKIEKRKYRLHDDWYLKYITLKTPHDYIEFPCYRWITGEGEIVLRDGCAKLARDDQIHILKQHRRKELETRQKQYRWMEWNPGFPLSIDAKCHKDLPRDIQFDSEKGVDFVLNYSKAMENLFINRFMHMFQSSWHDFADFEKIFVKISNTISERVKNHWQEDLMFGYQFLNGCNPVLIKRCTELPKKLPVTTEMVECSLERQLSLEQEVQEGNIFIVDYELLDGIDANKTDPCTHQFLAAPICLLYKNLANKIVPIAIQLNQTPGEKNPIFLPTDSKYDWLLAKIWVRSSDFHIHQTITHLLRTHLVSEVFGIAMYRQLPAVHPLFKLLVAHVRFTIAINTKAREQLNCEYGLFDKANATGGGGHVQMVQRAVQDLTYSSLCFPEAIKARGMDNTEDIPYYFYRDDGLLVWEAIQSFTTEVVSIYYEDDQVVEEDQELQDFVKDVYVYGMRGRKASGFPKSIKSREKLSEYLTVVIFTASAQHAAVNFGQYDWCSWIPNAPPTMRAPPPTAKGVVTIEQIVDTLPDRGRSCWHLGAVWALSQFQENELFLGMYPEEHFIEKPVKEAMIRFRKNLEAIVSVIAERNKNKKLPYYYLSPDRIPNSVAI
Description: (§1) ARBL/ARBC WHOLE CELL 5-LIPOXYGENASE AND CYCLOOXYGENASE ASSAYS The rat basophilic leukemia cell line (RBL-1) was obtained from the American Type Culture Collection (Rockville, Md.). Radioimmunoassay (RIA) kits of LTB4 and PGF2α were obtained from Amersham (Arlington Heights, Ill.) and Seragen (Boston, Mass.), respectively. RBL-1 cells are grown in suspension culture in Eagle's minimum essential medium supplemented with 12% fetal bovine serum at 37° C. in an incubator supplied with air-5% carbon dioxide. Cells are harvested by centrifugation. They are washed with cold phosphate-buffered saline, pH 7.4 (PBS; NaCl, 7.1 g; Na2 HPO4, 1.15 g; KH2 PO4, 0.2 g; and KCl, 0.2 g/L). Cells are finally suspended in PBS containing 1.0 mM calcium at a density of 2×10^6 cells/mL. Cells are incubated […] test agent (in DMSO) (1% DMSO is without effect on arachidonic acid metabolism) for 10 minutes at room temperature. Calcium ionophore A23187 (5 μM) is added and cells are incubated for 7 minutes at 37° C. The reaction is stopped by chilling the tubes on ice for 10 minutes. Cells are separated by centrifugation and the supernatant is stored at -20° C. Aliquots (100 μL) are analyzed for LTB4 and PGF2α using radioimmunoassay kits as provided by the supplier. Table 1 contains biochemical data for compounds of Formula I obtained from this whole cell assay as amount of inhibition at given μM or IC50 s which are calculated as the concentration of a test compound in micromoles (μM) causing 50% inhibition of LTB4 or PGF2αformation.

cyclooxygenase = molecular target: T2, cyclooxygenase (Rattus norvegicus, UniProt Q63921); assay: ARBC whole cell cyclooxygenase assay (PGF2α formation, RBL-1 cells); assay type: cell-based
T2 construct: host or cells: RBL-1
T2 sequence (Q63921 27-602): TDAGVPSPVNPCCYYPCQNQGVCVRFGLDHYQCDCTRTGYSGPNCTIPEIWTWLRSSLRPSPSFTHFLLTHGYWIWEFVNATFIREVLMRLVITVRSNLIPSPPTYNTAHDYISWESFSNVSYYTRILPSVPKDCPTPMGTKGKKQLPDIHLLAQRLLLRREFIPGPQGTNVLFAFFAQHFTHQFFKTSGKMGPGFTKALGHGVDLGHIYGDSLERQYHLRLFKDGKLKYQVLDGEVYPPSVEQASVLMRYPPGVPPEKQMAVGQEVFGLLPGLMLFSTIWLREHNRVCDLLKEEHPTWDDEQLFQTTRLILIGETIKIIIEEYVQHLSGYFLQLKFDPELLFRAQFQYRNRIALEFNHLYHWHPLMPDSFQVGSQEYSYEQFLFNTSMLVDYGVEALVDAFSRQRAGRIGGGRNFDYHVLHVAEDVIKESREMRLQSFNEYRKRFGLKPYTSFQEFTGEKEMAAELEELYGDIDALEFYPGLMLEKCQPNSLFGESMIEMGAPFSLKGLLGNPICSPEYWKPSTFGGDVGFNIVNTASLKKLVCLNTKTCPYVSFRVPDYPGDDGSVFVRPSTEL
Description: as §1

[1] = test system: carrageenan-induced rat foot paw edema; assay: Carrageenan-induced rat foot paw edema-2 (CFE-2) assay; assay type: in vivo; settings: dosed 1 hour before carrageenan, edema measured 5 hours after, read-out: CFE ID40
Description: CARRAGEENAN-INDUCED RAT FOOT PAW EDEMA-2 (CFE-2) ASSAY: PROTOCOL
Carrageenan solution (1% w/v) is prepared by dissolving 100 mg carrageenan (Marine Colloidal Div., Springfield, N.J.) in 10 mL of sterile saline (0.9%) solution (Travenol). The solution is vortexed for 30 to 45 minutes. Animals are dosed with compound 1 hour before carrageenan challenge. Foot paw edema is induced by injecting 0.10 mL of the 1% carrageenan subcutaneously into the plantar portion of the right hind paw of each rat under light anesthesia. Initial foot paw volume is measured immediately following carrageenan challenge using mercury plethysmography (Buxco Electronics). Edema is measured 5 hours after carrageenan. The difference between the 5-hour and the initial paw volume is expressed as delta edema. The delta edema for each test group of animals is used to calculate the percent inhibition of edema achieved by the compound at the test dose compared with the vehicle control group. The ID40 (the dose at which swelling is inhibited by 40%) is calculated by probit analysis for the dose at which 40% inhibition occurs.

[2] = A23187, read-out: ARBL inhibition of LTB4 at given concentration
[3] = A23187, class symbol, read-out: ARBC inhibition at given concentration (N)
[4] = A23187, class symbol, read-out: ARBL inhibition at given concentration (N)

inhibition at 16 µM (5-lipoxygenase; [2]) [%] | inhibition at 16 µM (cyclooxygenase; [3]) [%] | Structure (SMILES) | also measured
49 | < 40 | CC(C)C(=O)ON(Cc1cc(C(C)(C)C)c(O)c(C(C)(C)C)c1)C(=O)C(C)C [Example 13, N-[[3,5-Bis(1,1-dimethylethyl)-4-hydroxyphenyl]-methyl]-2-methyl-N-[2-methyl-1-oxopropoxy]propanamide] | 
99 | < 40 | CCNC(=O)N(O)C(c1ccccc1)c1cc(C(C)(C)C)c(O)c(C(C)(C)C)c1 (stereo not shown) [Example 24, N-[[3,5-Bis(1,1-dimethylethyl)-4-hydroxyphenyl]-phenylmethyl]-N'-ethyl-N-hydroxyurea] | 
 |  | CC(C)(C)c1cc(C(c2ccccc2)N(O)C(N)=O)cc(C(C)(C)C)c1O (stereo not shown) [Example 27, N-[[3,5-Bis(1,1-dimethylethyl)-4-hydroxyphenyl]-phenylmethyl]-N-hydroxyurea] | inhibition at 10 µM (5-lipoxygenase; [2]): 97%; inhibition at 10 µM (cyclooxygenase; [3]): < 40%
95 | < 40 | CC(C)C(=O)N(O)Cc1cc(C(C)(C)C)c(O)c(C(C)(C)C)c1 [Example 14, N-[[3,5-Bis(1,1-dimethylethyl)-4-hydroxyphenyl]-methyl]-N-hydroxy-2-methylpropanamide] | 
93 | < 40 | CNC(=O)N(O)C(c1ccccc1)c1cc(C(C)(C)C)c(O)c(C(C)(C)C)c1 (stereo not shown) [Example 25, N-[[3,5-Bis(1,1-dimethylethyl)-4-hydroxyphenyl]-phenylmethyl]-N-hydroxy-N'-methylurea] | 
90 | < 40 | CC(=O)N(O)Cc1cc(C(C)(C)C)c(O)c(C(C)(C)C)c1 [Example 15] | 
 | < 40 | CNC(=S)N(O)C(C)c1cc(C(C)(C)C)c(O)c(C(C)(C)C)c1 (stereo not shown) [Example 7, N-[1-[3,5-Bis(1,1-dimethylethyl)-4-hydroxyphenyl]-ethyl]-N-hydroxy-N'-methylthiourea] | inhibition at 16 µM (5-lipoxygenase; [4]): < 40%
 |  | CONC(c1ccccc1)c1cc(C(C)(C)C)c(O)c(C(C)(C)C)c1 (stereo not shown) [Example 18, 2,6-Bis(1,1-dimethylethyl)-4-[(methoxyamino)phenylmethyl]phenol, monohydrochloride] | inhibition at 10 µM (5-lipoxygenase; [2]): 93%; inhibition at 10 µM (cyclooxygenase; [3]): < 40%
 |  | CN(O)C(c1ccccc1)c1cc(C(C)(C)C)c(O)c(C(C)(C)C)c1 (stereo not shown) [Example 19, 2,6-Bis(1,1-dimethylethyl)-4-[(hydroxymethylamino)phenylmethyl]phenol, monohydrochloride] | IC50 (5-lipoxygenase; 50% inhibition of LTB4 formation): 1200 nM; IC50 (cyclooxygenase; 50% inhibition of PGF2α formation): 4300 nM; ED40 [1]: > 30 mg/kg
91 | < 40 | CCOC(=O)NC(=S)N(O)C(C)c1cc(C(C)(C)C)c(O)c(C(C)(C)C)c1 (stereo not shown) [Example 11, [[[1-[3,5-Bis(1,1-dimethylethyl)-4-hydroxyphenyl]-ethyl]hydroxyamino]-thioxomethyl]carbamic acid, ethyl ester, acetate (10:3)] | 
97 | < 40 | CCOC(=O)N(O)C(c1ccccc1)c1cc(C(C)(C)C)c(O)c(C(C)(C)C)c1 (stereo not shown) [Example 23, N-[[3,5-Bis(1,1-dimethylethyl)-4-hydroxyphenyl]-phenylmethyl]hydroxycarbamic acid, ethyl ester] | 
> 96 | < 40 | CCOC(=O)N(O)C(C)c1cc(C(C)(C)C)c(O)c(C(C)(C)C)c1 (stereo not shown) [Example 6, [1-[3,5-Bis(1,1-dimethylethyl)-4-hydroxyphenyl]-ethyl]hydroxycarbamic acid, ethyl ester] | 
> 91 | < 40 | CC(C)C(=O)N(O)C(C)c1cc(C(C)(C)C)c(O)c(C(C)(C)C)c1 (stereo not shown) [Example 4, N-[1-[3,5-Bis(1,1-dimethylethyl)-4-hydroxyphenyl]-ethyl]-N-hydroxy-2-methylpropanamide] | 
 |  | CC(C)C(=O)N(O)C(c1ccccc1)c1cc(C(C)(C)C)c(O)c(C(C)(C)C)c1 (stereo not shown) [Example 21, N-[[3,5-Bis(1,1-dimethylethyl)-4-hydroxyphenyl]-phenylmethyl]-N-hydroxy-2-methylpropanamide] | ED40 [1]: 5.3 mg/kg
 |  | CNC(=O)N(O)C(C)c1cc(C(C)(C)C)c(O)c(C(C)(C)C)c1 (stereo not shown) [Example 8, N-[1-[3,5-Bis(1,1-dimethylethyl)-4-hydroxyphenyl]-ethyl]-N-hydroxy-N'-methylure] | inhibition at 16 µM (5-lipoxygenase; [4]): < 40%; inhibition at 16 µM (cyclooxygenase; A23187, read-out: ARBC inhibition of PGF2α at given concentration): 45%
> 90 | < 40 | CC(=O)N(O)C(C)c1cc(C(C)(C)C)c(O)c(C(C)(C)C)c1 (stereo not shown) [Example 5, N-[1-[3,5-Bis(1,1-dimethylethyl)-4-hydroxyphenyl]-ethyl]-N-hydroxyacetamide] | 
98 | < 40 | CNC(=S)N(O)C(c1ccccc1)c1cc(C(C)(C)C)c(O)c(C(C)(C)C)c1 (stereo not shown) [Example 26, N-[[3,5-Bis(1,1-dimethylethyl)-4-hydroxyphenyl]-phenylmethyl]-N-hydroxy-N'-methylthiourea] | 
79 | < 40 | CC(c1cc(C(C)(C)C)c(O)c(C(C)(C)C)c1)N(O)C(N)=O (stereo not shown) [Example 10, N-[1-[3,5-Bis(1,1-dimethylethyl)-4-hydroxylphenyl]-ethyl]-N-hydroxyurea] | 
> 91 | < 40 | CCNC(=O)N(O)C(C)c1cc(C(C)(C)C)c(O)c(C(C)(C)C)c1 (stereo not shown) [Example 9, N-[1-[3,5-Bis(1,1-dimethylethyl)-4-hydroxyphenyl]-ethyl]-N'-ethyl-N-hydroxyurea] | 
95 | < 40 | CC(=O)ON(Cc1cc(C(C)(C)C)c(O)c(C(C)(C)C)c1)C(C)=O [Example 12, N-(Acetyloxy)-N-[[3,5-bis(1,1-dimethylethyl)-4-hydroxyphenyl]methyl]acetamide, 0.3 hydrate] | 
